Where “and” joins values, the source holds several entries; their conditions need not be identical. Identical values can stand only once.
Settings: 101.33 kPa, Liquid

CCCCCCCC[n+]1ccn(C)c1.F[P-](F)(F)(F)(F)F [1-octyl-3-methylimidazolium hexafluorophosphate]
Settings | mass density [kg/m3] | viscosity
369.26 K, Cone and plate viscometry | – | 26.6 mPa·s
369.99 K, Cone and plate viscometry | – | 26 mPa·s and 26.4 mPa·s
370.73 K, Cone and plate viscometry | – | 25.4 mPa·s and 25.8 mPa·s
371.47 K, Cone and plate viscometry | – | 25.2 mPa·s
371.49 K, Cone and plate viscometry | – | 24.8 mPa·s
372.22 K, Cone and plate viscometry | – | 24.8 mPa·s
372.23 K, Cone and plate viscometry | – | 24.3 mPa·s
372.96 K, Cone and plate viscometry | – | 24.3 mPa·s
372.97 K, Cone and plate viscometry | – | 24.4 mPa·s
373.15 K, Concentric cylinders viscometry | – | 24 mPa·s
373.15 K, Vibrating tube method | 1181.63 | –
373.71 K, Cone and plate viscometry | – | 23.3 mPa·s and 23.7 mPa·s
374.44 K, Cone and plate viscometry | – | 23.1 mPa·s
374.45 K, Cone and plate viscometry | – | 22.9 mPa·s
375.19 K, Cone and plate viscometry | – | 22.4 mPa·s and 22.6 mPa·s
375.94 K, Cone and plate viscometry | – | 22.1 mPa·s and 22.3 mPa·s
376.68 K, Cone and plate viscometry | – | 21.9 mPa·s
376.69 K, Cone and plate viscometry | – | 22 mPa·s
377.41 K, Cone and plate viscometry | – | 21.8 mPa·s
377.42 K, Cone and plate viscometry | – | 21.6 mPa·s
378.16 K, Cone and plate viscometry | – | 21.1 mPa·s
378.9 K, Cone and plate viscometry | – | 20.7 mPa·s
378.91 K, Cone and plate viscometry | – | 20.6 mPa·s
379.64 K, Cone and plate viscometry | – | 20.3 mPa·s
379.65 K, Cone and plate viscometry | – | 20.4 mPa·s
380.39 K, Cone and plate viscometry | – | 19.7 mPa·s and 19.9 mPa·s
381.13 K, Cone and plate viscometry | – | 19.6 mPa·s
381.14 K, Cone and plate viscometry | – | 19.4 mPa·s
381.87 K, Cone and plate viscometry | – | 19.2 mPa·s
381.88 K, Cone and plate viscometry | – | 19 mPa·s
382.62 K, Cone and plate viscometry | – | 18.5 mPa·s and 18.7 mPa·s
383.35 K, Cone and plate viscometry | – | 18.2 mPa·s
383.36 K, Cone and plate viscometry | – | 18.4 mPa·s
384.1 K, Cone and plate viscometry | – | 18.2 mPa·s
384.11 K, Cone and plate viscometry | – | 17.9 mPa·s
384.85 K, Cone and plate viscometry | – | 17.7 mPa·s and 17.9 mPa·s
385.6 K, Cone and plate viscometry | – | 17.4 mPa·s and 17.6 mPa·s
386.33 K, Cone and plate viscometry | – | 16.8 mPa·s
386.34 K, Cone and plate viscometry | – | 17 mPa·s
387.07 K, Cone and plate viscometry | – | 16.6 mPa·s
387.08 K, Cone and plate viscometry | – | 16.8 mPa·s
387.82 K, Cone and plate viscometry | – | 16.5 mPa·s and 16.7 mPa·s
388.56 K, Cone and plate viscometry | – | 16.6 mPa·s
388.57 K, Cone and plate viscometry | – | 16.5 mPa·s
389.3 K, Cone and plate viscometry | – | 16 mPa·s
389.32 K, Cone and plate viscometry | – | 16.2 mPa·s
390.04 K, Cone and plate viscometry | – | 15.8 mPa·s
390.05 K, Cone and plate viscometry | – | 15.6 mPa·s
390.79 K, Cone and plate viscometry | – | 15.3 mPa·s and 15.5 mPa·s
391.53 K, Cone and plate viscometry | – | 15.4 mPa·s
391.54 K, Cone and plate viscometry | – | 15.1 mPa·s
392.26 K, Cone and plate viscometry | – | 14.7 mPa·s
392.28 K, Cone and plate viscometry | – | 15.2 mPa·s
393.01 K, Cone and plate viscometry | – | 14.6 mPa·s
393.02 K, Cone and plate viscometry | – | 14.8 mPa·s
393.75 K, Cone and plate viscometry | – | 14.5 mPa·s
393.76 K, Cone and plate viscometry | – | 14.3 mPa·s
394.5 K, Cone and plate viscometry | – | 14.3 mPa·s
394.51 K, Cone and plate viscometry | – | 14.2 mPa·s
395.25 K, Cone and plate viscometry | – | 14.1 mPa·s
395.26 K, Cone and plate viscometry | – | 14 mPa·s
395.99 K, Cone and plate viscometry | – | 13.9 mPa·s and 14 mPa·s
396.73 K, Cone and plate viscometry | – | 13.7 mPa·s and 13.9 mPa·s
397.47 K, Cone and plate viscometry | – | 13.5 mPa·s
397.48 K, Cone and plate viscometry | – | 13.5 mPa·s
398.22 K, Cone and plate viscometry | – | 13.2 mPa·s and 13.4 mPa·s
398.96 K, Cone and plate viscometry | – | 13 mPa·s
398.97 K, Cone and plate viscometry | – | 13.1 mPa·s
399.7 K, Cone and plate viscometry | – | 12.9 mPa·s and 13 mPa·s
400.44 K, Cone and plate viscometry | – | 12.9 mPa·s
400.45 K, Cone and plate viscometry | – | 12.7 mPa·s
401.19 K, Cone and plate viscometry | – | 12.6 mPa·s and 12.8 mPa·s
401.93 K, Cone and plate viscometry | – | 12.3 mPa·s
401.94 K, Cone and plate viscometry | – | 12.6 mPa·s
402.67 K, Cone and plate viscometry | – | 12.2 mPa·s and 12.4 mPa·s
403.42 K, Cone and plate viscometry | – | 12.1 mPa·s and 12.3 mPa·s
404.16 K, Cone and plate viscometry | – | 12 mPa·s and 12.1 mPa·s
404.9 K, Cone and plate viscometry | – | 11.7 mPa·s
404.91 K, Cone and plate viscometry | – | 12 mPa·s
405.64 K, Cone and plate viscometry | – | 11.5 mPa·s and 11.6 mPa·s
406.39 K, Cone and plate viscometry | – | 11.3 mPa·s and 11.5 mPa·s
407.13 K, Cone and plate viscometry | – | 11.2 mPa·s and 11.4 mPa·s
407.87 K, Cone and plate viscometry | – | 11.3 mPa·s
407.88 K, Cone and plate viscometry | – | 11.1 mPa·s
408.62 K, Cone and plate viscometry | – | 10.6 mPa·s and 10.7 mPa·s
409.35 K, Cone and plate viscometry | – | 10.4 mPa·s and 10.5 mPa·s
410.1 K, Cone and plate viscometry | – | 10.3 mPa·s and 10.4 mPa·s
410.84 K, Cone and plate viscometry | – | 10.3 mPa·s
410.85 K, Cone and plate viscometry | – | 10.2 mPa·s
411.58 K, Cone and plate viscometry | – | 10.1 mPa·s
411.59 K, Cone and plate viscometry | – | 10.2 mPa·s
412.33 K, Cone and plate viscometry | – | 10 mPa·s and 10.1 mPa·s
413.07 K, Cone and plate viscometry | – | 9.6 mPa·s and 9.9 mPa·s
413.82 K, Cone and plate viscometry | – | 9.6 mPa·s and 9.7 mPa·s
